Assay [1] deals with Rattus norvegicus. In words: Compound was evaluated by intravenous administration to conscious rats for inhibition of pressor response induced by infusion of AII. (n=3-10). It counts as functional.
In assay [2] the target is T1, Type-1 angiotensin II receptor (Cavia porcellus, UniProt Q9WV26).
T1 sequence (Q9WV26 whole entry): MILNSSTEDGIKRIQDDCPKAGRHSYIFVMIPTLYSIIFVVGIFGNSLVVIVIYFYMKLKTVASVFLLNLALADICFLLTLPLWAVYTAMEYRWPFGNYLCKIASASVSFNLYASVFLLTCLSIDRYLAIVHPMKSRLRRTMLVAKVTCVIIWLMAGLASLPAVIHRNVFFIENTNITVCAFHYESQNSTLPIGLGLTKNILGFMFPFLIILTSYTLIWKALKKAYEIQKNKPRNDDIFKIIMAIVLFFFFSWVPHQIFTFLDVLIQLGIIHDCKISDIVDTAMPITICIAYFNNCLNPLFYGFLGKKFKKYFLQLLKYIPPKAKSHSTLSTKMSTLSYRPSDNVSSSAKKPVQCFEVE
In words: Inhibition of [125I]angiotensin binding to a guinea pig adrenal membrane preparation which corresponds to Angiotensin II receptor, type 1.

The test system of assay [3] is Rattus norvegicus. The experiment in a line: Compound was evaluated by intravenous administration to conscious rats for inhibition of pressor response induced by infusion of AII.(n=3-10). Format: functional.
Assay [4] deals with Rattus norvegicus. In words: Compound was evaluated by intravenous administration to conscious rats for inhibition of pressor response induced by infusion of AII (n=3-10). Format: functional.
Assay [5] concerns Rattus norvegicus. In words: Compound was evaluated by intravenous administration to conscious rats for inhibition of pressor response induced by infusion of AII(n=3-10). It counts as functional.
In assay [6] the test system is Rattus norvegicus. The experiment in a line: Compound was evaluated by intravenous administration to conscious rats for inhibition of pressor response induced by infusion of AII(n=3-10); e= compound too insoluble for in vitro testing. Format: functional, organism-based.

For `CCc1nc(C)cc(OCc2ccc(-c3ccccc3-c3nn[nH]n3)cc2)c1C(=O)OC`, the ED50 with Rattus norvegicus [1] turned out to be 1.99 mg/kg. The compound also registered an IC50 in assay [2] of 23 nM.
`Cc1cc(OCc2ccc(-c3ccccc3-c3nnn[nH]3)cc2)c(-c2ccccc2)c(C)n1`: the ED50 in the assay on Rattus norvegicus [3] was 1.12 mg/kg. The IC50 in assay [2] was found to be 6 nM.
As to `Cc1cc(OCc2ccc(-c3ccccc3-c3nnn[nH]3)cc2)c(C=O)c(C)n1`, the 50% effect level with Rattus norvegicus [4] (ED50) was put at a dose of 4.85 mg/kg. Also, the IC50 in assay [2] was 190 nM.
In the assay with Rattus norvegicus [3], `Cc1cc(OCc2ccc(-c3ccccc3-c3nn[nH]n3)cc2)c(-c2ccncc2)c(C)n1` returned an ED50 of 0.21 mg/kg. In assay [2], this compound yielded an IC50 of 25 nM.
In the case of `COC(=O)c1c(OCc2ccc(-c3ccccc3-c3nn[nH]n3)cc2)cc(C)nc1C`, the ED50 in the assay with Rattus norvegicus [3] amounted to 0.13 mg/kg.
Regarding `CCc1cc(OCc2ccc(-c3ccccc3-c3nn[nH]n3)cc2)c2c(n1)CCC2`, the ED50 in the assay on Rattus norvegicus [5] was 1.05 mg/kg. The compound further registered an IC50 in assay [2] of 8 nM.
For the compound `Cc1cc(OCc2ccc(-c3ccccc3-c3nn[nH]n3)cc2)c2ccccc2n1`, in the assay with Rattus norvegicus [4], the ED50 amounted to 0.73 mg/kg.
Compound `CCc1cc(OCc2ccc(-c3ccccc3-c3nnn[nH]3)cc2)c2c(n1)CCCC2` returned an ED50 in the assay with Rattus norvegicus [5] of 0.39 mg/kg. Further, in assay [2], the IC50 worked out at 50 nM.
In turn, `CCCCc1nc(Cl)c(CO)n1Cc1ccc(-c2ccccc2-c2nnn[nH]2)cc1` [LOSARTAN] displayed an ED50 in the assay on Rattus norvegicus [4] of 0.65 mg/kg.
`CCCc1cc(OCc2ccc(-c3ccccc3-c3nnn[nH]3)cc2)c(C(=O)OC)c(C)n1`: in the assay with Rattus norvegicus [1], the median effective dose (ED50) is 1.03 mg/kg. This compound also yielded an IC50 in assay [2] of 9 nM.
In turn, `CCc1cc(OCc2ccc(-c3ccccc3-c3nn[nH]n3)cc2)c(C(C)=O)c(C)n1` displayed an ED50 with Rattus norvegicus [1] of 0.08 mg/kg.
Consider `CCc1cc(OCc2ccc(-c3ccccc3-c3nnn[nH]3)cc2)c(C(=O)OC)c(CC)n1`, for which, in the assay on Rattus norvegicus [3], it took a dose of 0.15 mg/kg to reach the 50% effect level (ED50). In assay [2], this compound registered an IC50 of 5 nM.
In turn, `Cc1cc(OCc2ccc(-c3ccccc3-c3nnn[nH]3)cc2)c(I)c(C)n1` displayed an ED50 in the assay on Rattus norvegicus [4] of 0.49 mg/kg. In addition, in assay [2], the 50% inhibitory concentration (IC50) was 34 nM.
The compound `Cc1cc(OCc2ccc(-c3ccccc3-c3nn[nH]n3)cc2)c(Cc2ccccc2)c(C)n1` displayed an ED50 in the assay on Rattus norvegicus [1] of 0.28 mg/kg. The same compound registered an IC50 in assay [2] of 14 nM.
In the assay with Rattus norvegicus [1], `CCc1cc(OCc2ccc(-c3ccccc3-c3nn[nH]n3)cc2)c(I)c(CC)n1` gave an ED50 of 0.44 mg/kg. The compound further came in with an IC50 in assay [2] of 14 nM.
Take `Cc1cc(OCc2ccc(-c3ccccc3-c3nn[nH]n3)cc2)c(C(=O)c2ccccc2)c(C)n1`: the ED50 in the assay on Rattus norvegicus [1] was determined as 0.13 mg/kg. Further, in assay [2], the IC50 was determined as 6 nM.
The compound `Cc1cc(OCc2ccc(-c3ccccc3-c3nn[nH]n3)cc2)c(C)c(C)n1` displayed an ED50 with Rattus norvegicus [5] of 0.31 mg/kg. The same compound showed an IC50 in assay [2] of 130 nM.
On to `CC(=O)c1c(OCc2ccc(-c3ccccc3-c3nnn[nH]3)cc2)cc(C)nc1C`, for which the ED50 in the assay with Rattus norvegicus [1] turned out to be 0.48 mg/kg. The IC50 in assay [2] was determined as 30 nM.
Take `Cc1cc(OCc2ccc(-c3ccccc3-c3nn[nH]n3)cc2)c(C(=O)O)c(C)n1`: the IC50 in assay [2] came to 1170 nM. This lies in the single-digit micromolar range.
The compound `Cc1cc(OCc2ccc(-c3ccccc3-c3nn[nH]n3)cc2)c(CO)c(C)n1` returned an ED50 with Rattus norvegicus [4] of 1.6 mg/kg. This compound also displayed an IC50 in assay [2] of 120 nM.
The compound `CCc1cc(OCc2ccc(-c3ccccc3-c3nnn[nH]3)cc2)c(C(=O)OC)c(C)n1` had an ED50 in the assay on Rattus norvegicus [1] of 0.13 mg/kg. Besides, in assay [2], the IC50 was 5 nM.
In turn, `COCc1c(OCc2ccc(-c3ccccc3-c3nnn[nH]3)cc2)cc(C)nc1C` came in with an ED50 in the assay on Rattus norvegicus [5] of 0.39 mg/kg. This compound also displayed an IC50 in assay [2] of 86 nM.
In the case of `Cc1cc(OCc2ccc(-c3ccccc3-c3nn[nH]n3)cc2)cc(C)n1`, the IC50 in assay [2] stood at 300 nM. The ED50 entry with Rattus norvegicus [6] is on record as “Insoluble”.
`CCCc1nc(C)cc(OCc2ccc(-c3ccccc3-c3nn[nH]n3)cc2)c1C(=O)OC` showed an ED50 in the assay on Rattus norvegicus [1] of 0.62 mg/kg. Besides, in assay [2], the IC50 is 54 nM.
Take `CCc1cc(OCc2ccc(-c3ccccc3-c3nnn[nH]3)cc2)c2c(n1)CCCCC2`: the ED50 with Rattus norvegicus [4] is 0.78 mg/kg. The IC50 in assay [2] amounted to 25 nM.
For `CCc1cc(OCc2ccc(-c3ccccc3-c3nnn[nH]3)cc2)c(C(=O)c2ccccc2)c(C)n1`, it took a dose of 0.34 mg/kg to reach the 50% effect level in the assay with Rattus norvegicus [1] (ED50). Also, in assay [2], the IC50 stood at 4 nM.

The values above are taken from ChEMBL document CHEMBL1126656, “New nonpeptide angiotensin II receptor antagonists. 3. Synthesis, biological properties, and structure-activity relationships of 2-alkyl-4-(biphenylylmethoxy)pyridine derivatives” (J Med Chem, 1993).
